Laboratory results: paper PMC11044151, “Development of Half-Sandwich Ru, Os, Rh, and Ir Complexes Bearing the Pyridine-2-ylmethanimine Bidentate Ligand Derived from 7-Chloroquinazolin-4(3H)-one with Enhanced Antiproliferative Activity” (ACS Omega, 2024)

Experiments:
[1] = test system: SW620Mito; experiment: Neutral red uptake antiproliferative assay, MDR line SW620Mito; type: cell-based, human
Source text: (§1) Next, we evaluated the cytotoxicity of the synthesized complexes toward the panel of six multidrug-resistant (MDR) cell lines derived from SW620 and characterized by the overexpression of various ABC proteins, namely, ABCG2 (SW620C and SW620Mito), ABCC1 (SW620M and SW620E), and ABCB1 (SW620D, SW620E, and SW620V) (Table 3, Figures S29 and S32). […] The activity of the complexes derived from the ligand (S)-2 is also considerably higher than that of the compounds containing the ligand (R)-2. The cytotoxicity of both rhodium 4c and iridium 4d complexes is higher than that of amine (S)-1. In the case of 4c, the increase in cytotoxicity is low, with the highest value of 3.7-fold for the SW620Mito line. […] Compound 4d also exerts a 2.1- and 2.6-fold higher cytotoxicity than […] against the SW620C and SW620D lines.
(§2) For this purpose, neutral red uptake assay was performed. […] The results were presented as a percentage of control.

[2] = test system: SW620D; experiment: Neutral red uptake antiproliferative assay, MDR line SW620D; type: cell-based, human
Source text: as §1, §2

[3] = test system: A549; experiment: Neutral red uptake antiproliferative assay, A549
Source text: (§3) To assess the impact of conjugating half-sandwich complexes with amines 1 via an imine-pyridine ligand on biological activity, we examined the antiproliferative potential of (R)- and (S)-1 and organometallic conjugates 3a–d and 4a–d in selected human cancer cell lines: alveolar basal epithelial cell adenocarcinoma (A549), colorectal adenocarcinomas (Colo205 and SW620), colorectal carcinoma (HCT116), hepatocellular carcinoma (HepG2), and breast adenocarcinoma (MCF7). The choice of cell lines was dictated by results of previously published clinical trials on ispinesib.[49],[50]
(§4) Cell lines used in this study were purchased from the American Type Culture Collection via LGC Standards. Human normal lung fibroblasts (MRC-5), alveolar basal epithelial cell adenocarcinoma (A549), colorectal adenocarcinoma (Colo205), hepatocellular carcinoma (HepG2), breast adenocarcinoma (MCF7), and colorectal adenocarcinoma (SW620) and its MDR variants[55] were cultured in standard conditions (37 °C, 5% CO2, 100% relative humidity) in high glucose DMEM medium supplemented with GlutaMax, HEPES (ThermoFisher Scientific) and 10% fetal bovine serum (EURx, Poland). All cell lines were tested for Mycoplasma contamination using a MycoProbe mycoplasma detection kit (R&D System).
(§5) For this purpose, neutral red uptake assay was performed. 10^4 of cells were seeded per well of a 96-well plate and left overnight to allow cells to attach to the surface. Then, the cells were exposed to a desired concentration of tested compounds. Stock solutions were prepared in DMSO and were used immediately after preparation. The final concentration of DMSO was constant and nontoxic (0.1% v/v). After 70 h of culture, neutral red was added to the final concentration of 1 mM. After 2 h of incubation with the dye, the medium was aspirated and cells were washed with ice-cold PBS. The dye was released using 100 μL of the solubilizer (1% acetic acid in 50% ethanol) on an orbital shaker (10 min). The absorbance at 540 nm was measured using an EnVision multilabel plate reader (PerkinElmer). […] The IC90 and IC50 parameters were calculated using GraphPad Prism v9 software using the five-parameter nonlinear logistic regression model.

[4] = test system: SW620 cells; experiment: Cell cycle distribution by flow cytometry, SW620; type: cell-based, human; settings: concentration equal to IC75 of (S)-1 / (R)-1, mean ± SEM, n = 3
Procedure: Ispinesib leads to the formation of monopolar mitotic spindles and a blockade of chromosome segregation in cancer cells. Using flow cytometry, we assessed the cell cycle distribution in the SW620 and SW620E cells exposed to the studied compounds for 24 and 48 h. […] Both complexes, 3c and 3d, decrease the percentage of cells in the G1/G0 phase and increase the percentage in the S and G2/M phases. […] Furthermore, prolonged exposure to the compounds increases the percentage of cells in the G2/M phase, with the most intensive effect observed for 3c and 3d.
SW620 and SW620E cells lines (vulnerable and resistant variants, respectively) were seeded in 6-well plates at a density of 10^5 cells per well. […] After 24 h, the cells were trypsinized and fixed with ice-cold 70% v/v ethanol. The cells were stained with 75 μM propidium iodide with 50 Kunitz units of RNase A in PBS for 30 min at 37 °C. All samples were analyzed using a LSRII flow cytometer (Becton Dickinson) at a PE channel ([…]). Cell cycle phase distribution was determined using a built-in cell cycle module (Watson pragmatic algorithm) by FlowJo 7.6.1 software.

[5] = test system: SW620V; experiment: Neutral red uptake antiproliferative assay, MDR line SW620V; type: cell-based, human
Source text: as §1, §2

[6] = test system: SW620M; experiment: Neutral red uptake antiproliferative assay, MDR line SW620M; type: cell-based, human
Source text: as §1, §2

[7] = test system: SW620C; experiment: Neutral red uptake antiproliferative assay, MDR line SW620C; type: cell-based, human
Source text: as §1, §2

[8] = test system: SW620; experiment: Neutral red uptake antiproliferative assay, SW620; type: cell-based, human
Source text: as §3, §4, §5

[9] = test system: SW620 cells; experiment: ROS generation, dihydrorhodamine 123 oxidation assay; type: cell-based, human; settings: SW620, 1 μM compound, 4 h, DHR123 with 10 μM verapamil; vs control or (R)- and (S)-1
Source text: Metal complexes often induce reactive oxygen species (ROS) generation in cells,[51] which may increase their cytotoxic activity compared to purely organic molecules. To study the impact of the synthesized compounds on ROS production, we have measured the ROS generation in SW620 cells by the dihydrorhodamine 123 (DHR123) oxidation assay (Figure 9). However, there is no correlation between the antiproliferative potential and the ability of a compound to generate ROS.
Dihydrorhodamine 123 oxidation was used as an indicator of intracellular ROS production. For this purpose, SW620 cells were seeded in 6-well plates at a density of 10^5 cells per well. The cells were left overnight (time needed for them to attach to the surface). Then, 1 μM tested compounds were added along with 1 μM DHR123. Additionally, since DHR123 is a substrate of ABCB1 (which may interfere in this assay), 10 μM verapamil, an inhibitor of this protein, was added. The cells were cultured for an additional 4 h at 37 °C, and then the cells were harvested by trypsinization, resuspended in a complete medium, and analyzed using a LSRII flow cytometer (Becton Dickinson) in a FITC channel (530/30 nm). The results are presented as a percentage of control (median fluorescence in the presence of DMSO).

[10] = test system: HCT116; experiment: cells
Source text: as §3, §5

[11] = test system: Colo205; experiment: cells
Source text: as §3, §4, §5

[12] = test system: MCF7; experiment: cells
Source text: as §3, §4, §5

[13] = test system: HepG2; experiment: cells
Source text: as §3, §4, §5

[14] = test system: SW620E; experiment: Neutral red uptake antiproliferative assay, MDR line SW620E; type: cell-based, human
Source text: as §1, §2

[15] = exposure time 72 h, n = 3, ABCG2-overexpressing MDR line
[16] = vs corresponding amine (R)-1 or (S)-1, 72 h
[17] = exposure time 72 h, n = 3, ABCB1-overexpressing MDR line

CC(C)[C@H](N=Cc1ccccn1)c1nc2cc(Cl)ccc2c(=O)n1Cc1ccccc1.Cc1ccc(C(C)C)cc1.F[P-](F)(F)(F)(F)F.[Cl-].[Ru+2] [Compound 4a, [(cym)Ru((S)-2)Cl]PF6]
IC50 [1, 15]: 3.68 µM
activity factor IC50(1)/IC50(3a–4d), SW620Mito [1, 16]: (1.06)
IC50 [2, 17]: 6.01 µM
activity factor IC50(1)/IC50(3a–4d), SW620D [2, 16]: (0.690)
IC50 ([3]; read-out: IC50 A549, exposure time 72 h, n = 3, 95% CI given): 3.25 µM
activity factor IC50(1)/IC50(3a–4d), A549 [3, 16]: (2.17)
Cell cycle fraction G1, 24 h ([4]; SW620, 24 h): 52.8 ± 1.2%
Cell cycle fraction G2/M, 24 h ([4]; SW620, 24 h): 33.3 ± 1.0%
Cell cycle fraction S, 24 h ([4]; SW620, 24 h): 13.5 ± 0.4%
Cell cycle fraction G1, 48 h ([4]; SW620, 48 h): 46.8 ± 0.7%
Cell cycle fraction G2/M, 48 h ([4]; SW620, 48 h): 39.1 ± 0.3%
Cell cycle fraction S, 48 h ([4]; SW620, 48 h): 13.5 ± 0.8%
IC50 [5, 17]: 5.01 µM
activity factor IC50(1)/IC50(3a–4d), SW620V [5, 16]: (0.687)
IC50 ([6]; exposure time 72 h, n = 3, ABCC1-overexpressing MDR line): 3.24 µM
activity factor IC50(1)/IC50(3a–4d), SW620M [6, 16]: (1.07)
IC50 [7, 15]: 4.36 µM
activity factor IC50(1)/IC50(3a–4d), SW620C [7, 16]: (0.764)
IC50 ([8]; exposure time 72 h, n = 3, 95% CI given): 2.91 µM
activity factor IC50(1)/IC50(3a–4d), SW620 [8, 16]: (0.986)
ROS generation (in words) [9]: increase the level of ROS
IC50 ([10]; read-out: IC50 HCT116, exposure time 72 h, n = 3, 95% CI given): 3.76 µM
activity factor IC50(1)/IC50(3a–4d), HCT116 [10, 16]: (2.14)
increased cytotoxicity vs corresponding amine 1, Colo205 [11]: approximately 6 fold
IC50 ([11]; read-out: IC50 Colo205, exposure time 72 h, n = 3, 95% CI given): 0.939 µM
activity factor IC50(1)/IC50(3a–4d), Colo205 [11, 16]: (6.46)
increased cytotoxicity vs corresponding amine 1, MCF7 [12]: approximately 6 fold
IC50 ([12]; read-out: IC50 MCF7, exposure time 72 h, n = 3, 95% CI given): 0.634 µM
activity factor IC50(1)/IC50(3a–4d), MCF7 [12, 16]: (6.17)
IC50 ([13]; read-out: IC50 HepG2, exposure time 72 h, n = 3, 95% CI given): 1.89 µM
activity factor IC50(1)/IC50(3a–4d), HepG2 [13, 16]: (1.27)
IC50 ([14]; exposure time 72 h, n = 3, ABCC1- and ABCB1-overexpressing MDR line): 5.46 µM
activity factor IC50(1)/IC50(3a–4d), SW620E [14, 16]: (0.741)
